Source: paper PMC5738440, “Identification and characterization of the structure–activity relationships involved in UGT1A1 inhibition by anthraquinone and dianthrone constituents of Polygonum multiflorum” (Scientific Reports, 2017)
Read-outs that look alike come from different tables or passages of the source.

Key:
[1] = biological target: T1, UGT1A1 (Rattus norvegicus, UniProt Q64550); experiment: UGT1A1 inhibition: bilirubin glucuronidation in rat liver microsomes (RLM), enzyme inhibition kinetics; conditions: for Mode of inhibition: Lineweaver-Burk and Dixon plots
T1 sequence (Q64550 30-535): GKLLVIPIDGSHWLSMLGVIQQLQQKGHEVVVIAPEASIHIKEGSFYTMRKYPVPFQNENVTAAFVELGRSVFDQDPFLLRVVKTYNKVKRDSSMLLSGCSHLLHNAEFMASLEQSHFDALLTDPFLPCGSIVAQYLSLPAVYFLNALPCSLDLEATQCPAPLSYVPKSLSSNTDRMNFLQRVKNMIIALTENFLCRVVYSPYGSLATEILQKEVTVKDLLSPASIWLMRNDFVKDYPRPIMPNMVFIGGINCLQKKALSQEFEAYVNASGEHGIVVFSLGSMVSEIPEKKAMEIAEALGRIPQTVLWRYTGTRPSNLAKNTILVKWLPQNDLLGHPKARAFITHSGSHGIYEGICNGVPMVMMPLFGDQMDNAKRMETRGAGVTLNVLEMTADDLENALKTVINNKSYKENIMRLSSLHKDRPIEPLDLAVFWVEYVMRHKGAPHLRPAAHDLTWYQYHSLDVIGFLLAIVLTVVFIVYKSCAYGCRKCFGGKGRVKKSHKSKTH
Description: UGT1A1 activity assays were conducted at 37 °C in a shaking water bath[41]. Incubation mixtures (final volume, 0.2 mL) contained 0.5 mg/mL RLM, 0.1 M Tris-HCl (pH 7.4), 5 mM MgCl2, 5 mM D-saccharic acid 1,4-lactone, 3.5 mM UDPGA, and 50 mg/g protein alamethicin. Bilirubin (as a UGT1A1 substrate) and the test samples were dissolved in 100% dimethylsulfoxide (DMSO) immediately before being added to the incubation mixtures. […] The reaction was initiated by adding UDPGA after a 5-min pre-incubation at 37 °C; it was terminated after 10 min by adding 0.6 mL of ice-cold methanol: acetonitrile (1:2) containing 200 mM ascorbic acid. Proteins were precipitated by centrifugation at 13,000 × g for 30 min at 4 °C prior, and the supernatants were analyzed by UPLC.The assays were done in triplicates respectively.
Bilirubin glucuronidation was evaluated in the presence of various concentrations of bilirubin and potential inhibitors, as described above. Samples were analyzed in triplicate to determine their inhibition constants (Ki). For assays with inhibitors, the bilirubin concentration was 0.12 to 1.37 μM.
The inhibition kinetic type and parameters were determined by fitting the reaction velocities of different concentrations of test components (inhibitors) and bilirubin (substrate). Lineweaver–Burk and Dixon fitting equations were employed to determine the inhibition type, and the second plot (drawn using the slope of lines in the Lineweaver–Burk plot versus inhibitor concentrations) was used to calculate the Ki values. The results were analyzed using GraphPad Prism 5 software (GraphPad Inc., San Diego, CA, USA)[48]. […] The goodness-of-fit of the inhibition models was estimated using the F statistic, R^2 value, parameter standard error estimates, and 95% confidence intervals.

[2] = biological target: rUGT1A1; conditions: rUGT1A1 system, competitive; cited from earlier work
[3] = system: UGT1A1; conditions: HLM system, competitive; cited from earlier work
[4] = biological target: T1, UGT1A1; conditions: RLM system, competitive; cited from earlier work
[5] = Ki value, bilirubin substrate, extract concentration based on emodin content

Compound | Ki [1, 5] | Mode of inhibition [1] | Ki [2] | Ki [3] | Ki [4] | Ki at 10 min ([1]; rat, pH 7.4, probe bilirubin (0.12-1.37 μM), Ki value, bilirubin substrate, extract concentration based on emodin content)
Cc1cc(O)c2c(c1)C(C1c3cc(C)cc(O)c3C(=O)c3c(O)cc(O)cc31)c1cc(O)cc(O)c1C2=O (stereo not drawn) [Cis-emodin dianthrones] | 0.863 µM | – | – | – | – | –
O=C1c2cc(O)cc(O)c2C(=O)c2c(O)cc(CO)cc21 [Citreorosein] | 18.6 µM | Mixed Type inhibition | – | – | – | –
Cc1cc(O)c2c(c1)C(=O)c1cc(O)cc(O)c1C2=O [Emodin] | 10 µM | Competitive inhibition | 4.85 ± 0.528 µM | 5.4 ± 0.956 µM | 10 ± 0.611 µM | –
COc1cc(O)c2c(c1)C(=O)c1cc(C)cc(O)c1C2=O [Physcion] | 94.7 µM | Non-Competitive inhibition | – | – | – | –
Cc1cc(O)c2c(c1)C(C1c3cc(C)cc(O)c3C(=O)c3c(OC4OC(CO)C(O)C(O)C4O)cc(O)cc31)c1cc(O)cc(O)c1C2=O (stereo not drawn) [Polygonumnolide C2] | 4.29 µM | Non-Competitive inhibition | – | – | – | 4.22 µM
Cc1cc(O)c2c(c1)C(C1c3cc(C)cc(O)c3C(=O)c3c(OC4OC(CO)C(O)C(O)C4O)cc(O)cc31)c1cc(O)cc(O)c1C2=O (stereo not drawn) [Polygonumnolide C3] | 12.9 µM | Non-Competitive inhibition | – | – | – | –
Cc1cc(O)c2c(c1)C(C1c3cc(C)cc(O)c3C(=O)c3c(OC4OC(CO)C(O)C(O)C4O)cc(O)cc31)c1cc(O)cc(O)c1C2=O (stereo not drawn) [Polygonumnolide C4] | 77.4 µM | Un-Competitive inhibition | – | – | – | –
O=C(O)c1cc(O)c2c(c1)C(=O)c1cccc(O)c1C2=O [Rhein] | 127 µM | Mixed Type inhibition | – | – | – | –
Cc1cc(O)c2c(c1)C(C1c3cc(C)cc(O)c3C(=O)c3c(O)cc(O)cc31)c1cc(O)cc(O)c1C2=O (stereo not drawn) [Trans-emodin dianthrones] | 1.08 µM | Competitive inhibition | – | – | – | –
